Test results reported in ChEMBL document CHEMBL3352116, “Discovery heralds new approach to the treatment of cystic fibrosis” (J Med Chem, 2014).

Experiments:
[1] = biological target: Cystic fibrosis transmembrane conductance regulator (Homo sapiens, UniProt P13569); assay: Corrector activity at CFTR mutant (unknown origin) by phenotypic screening assay
[2] = Half life in rat; assay type: ADME, organism-based; settings: in vivo
[3] = biological target: Cystic fibrosis transmembrane conductance regulator (Homo sapiens, UniProt P13569, F508DEL/G551D); assay: […] activity at human bronchial epithelium CFTR F508del and G551D mutant assessed as increase in channel gating
Chain of Cystic fibrosis transmembrane conductance regulator (Homo sapiens, UniProt P13569, F508DEL/G551D) (P13569 as listed by the source): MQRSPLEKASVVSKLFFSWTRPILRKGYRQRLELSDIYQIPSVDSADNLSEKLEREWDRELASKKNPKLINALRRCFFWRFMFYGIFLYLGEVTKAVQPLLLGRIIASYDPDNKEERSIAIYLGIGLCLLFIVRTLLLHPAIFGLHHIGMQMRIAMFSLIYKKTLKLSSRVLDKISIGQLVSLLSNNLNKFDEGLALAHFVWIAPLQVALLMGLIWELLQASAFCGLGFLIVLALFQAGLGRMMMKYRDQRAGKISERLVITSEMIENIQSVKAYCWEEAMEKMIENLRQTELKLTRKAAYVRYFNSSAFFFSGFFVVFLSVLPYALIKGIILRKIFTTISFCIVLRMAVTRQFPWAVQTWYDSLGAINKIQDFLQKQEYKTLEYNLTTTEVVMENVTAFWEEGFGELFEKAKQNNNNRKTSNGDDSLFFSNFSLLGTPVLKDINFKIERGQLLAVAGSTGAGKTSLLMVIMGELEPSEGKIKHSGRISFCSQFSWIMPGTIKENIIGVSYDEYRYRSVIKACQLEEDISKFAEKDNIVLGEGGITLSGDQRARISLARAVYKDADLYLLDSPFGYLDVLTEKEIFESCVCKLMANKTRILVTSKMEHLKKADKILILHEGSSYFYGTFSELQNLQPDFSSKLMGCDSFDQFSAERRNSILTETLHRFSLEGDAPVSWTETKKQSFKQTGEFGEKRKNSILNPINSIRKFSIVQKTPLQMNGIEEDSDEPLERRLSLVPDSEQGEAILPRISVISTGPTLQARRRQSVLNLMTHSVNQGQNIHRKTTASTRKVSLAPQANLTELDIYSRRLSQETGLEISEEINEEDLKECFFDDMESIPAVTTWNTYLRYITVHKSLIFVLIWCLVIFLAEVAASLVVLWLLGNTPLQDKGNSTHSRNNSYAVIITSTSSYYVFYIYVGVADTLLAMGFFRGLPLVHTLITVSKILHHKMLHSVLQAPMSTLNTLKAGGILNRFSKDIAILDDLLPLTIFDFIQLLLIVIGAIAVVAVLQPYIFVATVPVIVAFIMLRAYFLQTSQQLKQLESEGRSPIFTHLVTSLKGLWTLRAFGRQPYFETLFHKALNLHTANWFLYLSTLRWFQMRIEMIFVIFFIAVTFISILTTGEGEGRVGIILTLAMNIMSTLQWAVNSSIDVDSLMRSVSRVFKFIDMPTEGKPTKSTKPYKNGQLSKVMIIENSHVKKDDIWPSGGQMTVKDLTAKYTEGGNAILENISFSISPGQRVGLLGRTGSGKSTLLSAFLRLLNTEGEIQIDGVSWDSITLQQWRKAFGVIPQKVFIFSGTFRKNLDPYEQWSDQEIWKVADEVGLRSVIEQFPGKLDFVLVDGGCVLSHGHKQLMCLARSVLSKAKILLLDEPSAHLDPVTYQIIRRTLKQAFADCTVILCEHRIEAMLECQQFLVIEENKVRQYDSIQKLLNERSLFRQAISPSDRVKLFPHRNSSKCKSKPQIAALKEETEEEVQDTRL

[4] = Inhibition of CYP450 (unknown origin); assay type: ADME; settings: human
[5] = Oral bioavailability in rat; assay type: ADME, organism-based; settings: in vivo

Chain of Cystic fibrosis transmembrane conductance regulator (Homo sapiens, UniProt P13569) (P13569 whole entry, looked up, change not shown): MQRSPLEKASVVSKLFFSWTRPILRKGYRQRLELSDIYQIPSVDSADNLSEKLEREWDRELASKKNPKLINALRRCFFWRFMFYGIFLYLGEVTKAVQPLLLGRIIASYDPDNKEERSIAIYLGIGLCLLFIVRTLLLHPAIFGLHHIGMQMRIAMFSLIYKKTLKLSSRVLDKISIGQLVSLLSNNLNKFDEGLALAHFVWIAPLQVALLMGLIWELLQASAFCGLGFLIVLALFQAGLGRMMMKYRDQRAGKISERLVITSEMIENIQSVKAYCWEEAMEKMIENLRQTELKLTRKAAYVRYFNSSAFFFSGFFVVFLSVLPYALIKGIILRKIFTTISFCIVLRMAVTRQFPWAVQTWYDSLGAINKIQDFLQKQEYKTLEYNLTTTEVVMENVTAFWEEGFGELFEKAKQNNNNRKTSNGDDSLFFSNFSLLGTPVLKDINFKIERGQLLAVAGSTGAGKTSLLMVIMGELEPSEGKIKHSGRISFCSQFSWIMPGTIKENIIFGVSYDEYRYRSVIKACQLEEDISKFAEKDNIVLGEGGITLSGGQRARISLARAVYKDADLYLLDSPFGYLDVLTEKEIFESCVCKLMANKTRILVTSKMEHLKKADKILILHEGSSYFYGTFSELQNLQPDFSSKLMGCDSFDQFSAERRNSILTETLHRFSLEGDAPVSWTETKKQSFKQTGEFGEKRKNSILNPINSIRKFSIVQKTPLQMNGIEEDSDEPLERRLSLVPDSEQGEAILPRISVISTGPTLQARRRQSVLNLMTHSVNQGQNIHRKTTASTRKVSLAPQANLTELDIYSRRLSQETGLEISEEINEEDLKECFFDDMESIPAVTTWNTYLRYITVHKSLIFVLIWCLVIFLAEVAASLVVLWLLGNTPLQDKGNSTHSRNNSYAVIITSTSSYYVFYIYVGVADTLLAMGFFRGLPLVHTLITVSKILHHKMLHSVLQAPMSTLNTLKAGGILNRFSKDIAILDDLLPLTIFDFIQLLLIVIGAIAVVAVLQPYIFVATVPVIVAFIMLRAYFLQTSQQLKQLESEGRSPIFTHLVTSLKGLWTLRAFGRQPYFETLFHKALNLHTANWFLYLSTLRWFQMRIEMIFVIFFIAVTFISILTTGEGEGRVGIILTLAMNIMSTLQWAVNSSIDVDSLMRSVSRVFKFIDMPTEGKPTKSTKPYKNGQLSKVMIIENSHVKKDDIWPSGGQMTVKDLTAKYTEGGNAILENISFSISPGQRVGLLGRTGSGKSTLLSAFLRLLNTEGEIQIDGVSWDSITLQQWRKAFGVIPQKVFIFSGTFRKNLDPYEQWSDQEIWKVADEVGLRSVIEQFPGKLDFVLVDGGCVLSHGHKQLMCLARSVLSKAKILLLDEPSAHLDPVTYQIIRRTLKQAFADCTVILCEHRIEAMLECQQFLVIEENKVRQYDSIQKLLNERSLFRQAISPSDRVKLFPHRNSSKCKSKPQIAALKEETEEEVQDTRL

Q: For `O=C(c1c[nH]c2ccccc2c1=O)N(Cc1ccccc1)Cc1ccccc1`, which EC50 [1] is on record?
A: Its EC50 is 2100 nM.

Q: Which EC50 [1] does the source give for `O=C(Nc1ccc2cc[nH]c2c1)c1c[nH]c2ccccc2c1=O` here?
A: Its EC50 is 100 nM.

Q: For `CC(C)(C)c1cc(C(C)(C)C)c(NC(=O)c2c[nH]c3ccccc3c2=O)cc1O` [IVACAFTOR], which half-life [2] is on record?
A: The half-life was 9.5 h.

Q: And the EC50 [1]?
A: Its EC50 is 3 nM.

Q: What about the EC50 [3] of the same molecule?
A: The EC50 was 236 nM.

Q: And the “inhibition (INH)” value [4]?
A: Its value is “Not Active”.

Q: And the bioavailability [5]?
A: Its bioavailability is 55%.
